The text below walks through data of patent US11230526B1, “Cylcoalkenyl derivatives useful as agonists of the GPR120 and/or GPR40 receptors” (Janssen Pharmaceutica NV, priority 2018, dated 2022).

Assay [1] addresses T1, Human GPR120 short form (Homo sapiens, UniProt Q5NUL3).
T1 construct: expressed in transfected cells
T1 sequence (Q5NUL3 1-361): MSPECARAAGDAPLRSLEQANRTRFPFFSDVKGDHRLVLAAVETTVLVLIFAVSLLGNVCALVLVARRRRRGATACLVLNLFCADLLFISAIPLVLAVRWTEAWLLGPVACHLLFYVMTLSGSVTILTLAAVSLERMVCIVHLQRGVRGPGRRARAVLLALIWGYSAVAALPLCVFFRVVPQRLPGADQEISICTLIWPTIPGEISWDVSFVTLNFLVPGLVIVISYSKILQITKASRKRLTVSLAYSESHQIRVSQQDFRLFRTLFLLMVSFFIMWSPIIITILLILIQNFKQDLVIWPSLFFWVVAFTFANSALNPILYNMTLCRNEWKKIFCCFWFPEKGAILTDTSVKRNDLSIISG
As to the kind of experiment: Human GPR120 calcium flux assay, Procedure Calcium B (4200 cells/well). The assay is classed as cell-based. Put shortly: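 Agonist EC50 came from a four-parameter fit of RFU (Fmax−Fmin) read over 300 s on FLIPR. Cells were HEK293 stably transfected with human GPR120 (NM_001195755.1) at 4200 per well, serum-starved 1 h and loaded with Fluo-4 NW dye with probenecid before ligand addition.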
Background: A change in cytosolic calcium serves as a functional read-out for many receptors and channels.

In assay [2] the target is T2, human GPR40 (Homo sapiens, UniProt O14842).
T2 construct: expressed in transfected cells
As to the kind of experiment: GPR40 calcium flux assay, human GPR40. The assay is classed as cell-based. The conditions noted are these: HEK293 cells stably expressing GPR40; table does not say human or rat. Put shortly:
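Cells preincubated 1 h at 37° C. in HBSS, 20 mM HEPES, 0.1% BSA, then Fluo 8 calcium dye 30 min at 37° C. and 15 min at room temperature.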

T2 sequence (O14842 whole entry): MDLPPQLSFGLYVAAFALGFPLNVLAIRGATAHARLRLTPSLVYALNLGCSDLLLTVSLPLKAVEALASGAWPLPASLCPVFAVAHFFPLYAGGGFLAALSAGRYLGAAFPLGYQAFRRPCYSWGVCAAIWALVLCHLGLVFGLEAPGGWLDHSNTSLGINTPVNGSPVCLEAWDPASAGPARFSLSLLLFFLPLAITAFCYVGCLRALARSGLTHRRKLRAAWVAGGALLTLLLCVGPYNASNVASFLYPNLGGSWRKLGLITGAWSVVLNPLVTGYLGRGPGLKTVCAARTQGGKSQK

The EC50 is the concentration needed to bring the measured effect to its halfway point. For `Cc1ccc(C2=C(COc3ccc(CCC(=O)O)c(C(F)(F)F)c3)CCC2)c(F)c1` [Compound 283, 3-[4-[[2-(2-fluoro-4-methyl-phenyl)cyclopenten-1-yl]methoxy]-2-(trifluoromethyl)phenyl]Propanoic Acid], the EC50 was determined as 236 nM in assay [1] and 355 nM in assay [2].
On the same counts, the results for `Cc1cc(OCC2=C(Cc3ccccc3)CC(F)(F)C2)c(F)cc1CCC(=O)O` [Compound 357, 3-[4-[(2-benzyl-4,4-difluoro-cyclopenten-1-yl)methoxy]-5-fluoro-2-methyl-phenyl]Propanoic Acid] are 664 nM and 653 nM.
For `C=Cc1cc(OCC2=C(C3CCCC3)CCC2)ccc1CCC(=O)O` [Compound 442, 3-[4-[(2-cyclopentylcyclopenten-1-yl)methoxy]-2-vinyl-phenyl]Propanoic Acid], in that order: 334 nM and 48 nM.
For `CC(C)CC1=C(COc2ccc(CCC(=O)O)cc2)CCC1` [Compound 384, 3-[4-[(2-isobutylcyclopenten-1-yl)methoxy]phenyl]Propanoic Acid], in that order: 677 nM and 635 nM.
`CC1CCC(COc2ccc(CCC(=O)O)c(Cl)c2)=C1c1ccc(Cl)cc1` (stereo not drawn) [Compound 327, 3-[2-chloro-4-[[2-(4-chlorophenyl)-3-methyl-cyclopenten-1-yl]methoxy]phenyl]Propanoic Acid]: the half-maximal effective concentration (EC50) in assay [1] was determined as 983 nM; in assay [2], 205 nM.
On to `O=C(O)CCc1ccc(OCC2=C(c3cc(Cl)ccc3F)CCC2)cc1Cl` [Compound 342, 3-[2-chloro-4-[[2-(5-chloro-2-fluoro-phenyl)cyclopenten-1-yl]methoxy]phenyl]Propanoic Acid], for which the concentration giving a half-maximal response (EC50) in assay [1] was 515 nM; in assay [2], 322 nM.
Regarding `[2H]C([2H])([2H])c1ccc(C2=C(COc3ccc(CCC(=O)O)c(C(F)(F)F)c3)CCC2)cc1` [Compound 268-D, 3-[4-[[2-[4-(trideuteriomethyl)phenyl]cyclopenten-1-yl]methoxy]-2-(trifluoromethyl)phenyl]Propanoic Acid], the EC50 is 685 nM in assay [1] and 992 nM in assay [2].
On the same counts, the results for `CCc1ccc(C2=C(COc3cc(C)c(CCC(=O)O)cc3F)CCC2)cc1` [Compound 290, 3-[4-[[2-(4-ethylphenyl)cyclopenten-1-yl]methoxy]-5-fluoro-2-methyl-phenyl]Propanoic Acid] are 418 nM and greater than 5000 nM.
For `O=C(O)CCc1ccc(OCC2=C(CCc3ccccc3)CCC2)cc1C(F)(F)F` [Compound 372, 3-[4-[(2-phenethylcyclopenten-1-yl)methoxy]-2-(trifluoromethyl)phenyl]Propanoic Acid], in that order: 2350 nM and 197 nM.
On the same counts, the results for `Cc1ccc(CC2=C(COc3ccc(CCC(=O)O)c(Cl)c3)CCC2)cc1` [Compound 348, 3-[2-chloro-4-[[2-(p-tolylmethyl)cyclopenten-1-yl]methoxy]phenyl]Propanoic Acid] are 2360 nM and 57 nM.
In the case of `Cc1ccc(CC2=C(COc3cc(C)c(CCC(=O)O)cc3F)CCC2)cc1` [Compound 347, 3-[5-fluoro-2-methyl-4-[[2-(p-tolylmethyl)cyclopenten-1-yl]methoxy]phenyl]Propanoic Acid], the EC50 worked out at 1800 nM in assay [1] and 897 nM in assay [2].
For `Cc1ccc(C2=C(COc3cc(C)c(CCC(=O)O)cc3F)CCC2)c(F)c1` [Compound 270, 3-[5-fluoro-4-[[2-(2-fluoro-4-methyl-phenyl)cyclopenten-1-yl]methoxy]-2-methyl-phenyl]Propanoic Acid], in that order: 189 nM and 1500 nM.
On the same counts, the results for `CC1CCC(COc2ccc(CCC(=O)O)c(Cl)c2)=C1c1ccccc1` (stereo not drawn) [Compound 320, 3-[2-chloro-4-[(3-methyl-2-phenyl-cyclopenten-1-yl)methoxy]phenyl]Propanoic Acid] are 998 nM and 543 nM.
For `O=C(O)CCc1ccc(OCC2=C(c3ccc(Cl)cc3)CC(F)(F)C2)cc1C(F)(F)F` [Compound 248, 3-[4-[[2-(4-chlorophenyl)-4,4-difluoro-cyclopenten-1-yl]methoxy]-2-(trifluoromethyl)phenyl]Propanoic Acid], in that order: 361 nM and 188 nM.
On to `O=C(O)CCc1ccc(OCC2=C(C3CCCC3)CCC2)c(F)c1` [Compound 425, 3-[4-[(2-cyclopentylcyclopenten-1-yl)methoxy]-3-fluoro-phenyl]Propanoic Acid], for which the EC50 was 143 nM in assay [1] and 3230 nM in assay [2].
For `Cc1cc(OCC2=C(C3=CCCCC3)CCC2)c(F)cc1CCC(=O)O` [Compound 352, 3-[4-[[2-(cyclohexen-1-yl)cyclopenten-1-yl]methoxy]-5-fluoro-2-methyl-phenyl]Propanoic Acid], in that order: greater than 5000 nM and greater than 10000 nM.
On the same counts, the results for `O=C(O)CCc1ccc(OCC2=C(C3CCCC3)CCCC2)cc1Cl` [Compound 594, 3-[2-chloro-4-[(2-cyclopentylcyclohexen-1-yl)methoxy]phenyl]Propanoic Acid] are 362 nM and greater than 10000 nM.
On to `O=C(O)CCc1ccc(OCC2=C(Cc3cncs3)CCCC2)cc1Cl` [Compound 595, 3-[2-chloro-4-[[2-(thiazol-5-ylmethyl)cyclohexen-1-yl]methoxy]phenyl]Propanoic Acid], for which the EC50 in assay [1] turned out to be 1110 nM; in assay [2] it was 218 nM.
On the same counts, the results for `Cc1cc(OCC2=C(C3CCC(F)(F)CC3)CCC2)c(F)cc1CCC(=O)O` [Compound 417, 3-[4-[[2-(4,4-difluorocyclohexyl)cyclopenten-1-yl]methoxy]-5-fluoro-2-methyl-phenyl]Propanoic Acid] are greater than 5000 nM and 1010 nM.
Take `CCC(CC)C1=C(COc2ccc(CCC(=O)O)c(C(F)(F)F)c2)CCC1` [Compound 380, 3-[4-[[2-(1-ethylpropyl)cyclopenten-1-yl]methoxy]-2-(trifluoromethyl)phenyl]Propanoic Acid]: the figures for the 50% effective concentration (EC50) in assay [1] and in assay [2] were greater than 5000 nM and 84 nM, respectively.
For `O=C(O)CCc1ccc(OCC2=C(C3CCCC3)CCC2)cc1Br` [Compound 421, 3-[2-bromo-4-[(2-cyclopentylcyclopenten-1-yl)methoxy]phenyl]Propanoic Acid], in that order: 222 nM and 25 nM.
On the same counts, the results for `O=C(O)CCc1ccc(OCC2=C(C3CCC3)CC(F)(F)C2)cc1C(F)(F)F` [Compound 382, 3-[4-[(2-cyclobutyl-4,4-difluoro-cyclopenten-1-yl)methoxy]-2-(trifluoromethyl)phenyl]Propanoic Acid] are 635 nM and 46 nM.
On the same counts, the results for `Cc1ccc(C2=C(COc3ccc(CCC(=O)O)c(C(F)(F)F)c3)CCC2)c(C)c1` [Compound 247, 3-[4-[[2-(2,4-dimethylphenyl)cyclopenten-1-yl]methoxy]-2-(trifluoromethyl)phenyl]Propanoic Acid] are 3060 nM and 388 nM.
Consider `CC1CCC(c2ccccc2)=C1COc1ccc(CCC(=O)O)c(Cl)c1` (stereo not drawn) [Compound 334, 3-[2-chloro-4-[(5-methyl-2-phenyl-cyclopenten-1-yl)methoxy]phenyl]Propanoic Acid], for which the 50% effective concentration (EC50) is 1730 nM in assay [1] and 2130 nM in assay [2].
On the same counts, the results for `Cc1c(CCC(=O)O)ccc(OCC2=C(C3CCCC3)CCC2)c1C` [Compound 432, 3-[4-[(2-cyclopentylcyclopenten-1-yl)methoxy]-2,3-dimethyl-phenyl]Propanoic Acid] are 44 nM and greater than 10000 nM.
For `O=C(O)CCc1cc(F)c(OCC2=C(c3ccco3)CCC2)c(F)c1` [Compound 209, 3-[3,5-difluoro-4-[[2-(2-furyl)cyclopenten-1-yl]methoxy]phenyl]Propanoic Acid], in that order: 4640 nM and greater than 5000 nM.
On the same counts, the results for `Cc1cc(OCC2=C(c3ccccc3)CCC2)c(F)cc1CCC(=O)O` [Compound 277, 3-[5-fluoro-2-methyl-4-[(2-phenylcyclopenten-1-yl)methoxy]phenyl]Propanoic Acid] are 799 nM and 2680 nM.
For `Cc1cc(OCC2=C(c3ccc(Cl)c(F)c3)CCC2)c(F)cc1CCC(=O)O` [Compound 280, 3-[4-[[2-(4-chloro-3-fluoro-phenyl)cyclopenten-1-yl]methoxy]-5-fluoro-2-methyl-phenyl]Propanoic Acid], the half-maximal effective concentration (EC50) was determined as 346 nM in assay [1] and 471 nM in assay [2].
For `Cc1cc(OCC2=C(c3ccccc3Cl)CCC2)c(F)cc1CCC(=O)O` [Compound 265, 3-[4-[[2-(2-chlorophenyl)cyclopenten-1-yl]methoxy]-5-fluoro-2-methyl-phenyl]Propanoic Acid], in that order: 1210 nM and 1140 nM.
On the same counts, the results for `O=C(O)CCc1cc(Br)c(OCC2=C(c3ccc(Cl)cc3)CCC2)c(Br)c1C(F)(F)F` [Compound 101, 3-[3,5-dibromo-4-[[2-(4-chlorophenyl)cyclopenten-1-yl]methoxy]-2-(trifluoromethyl)phenyl]Propanoic Acid] are 1230 nM and greater than 5000 nM.
